Test results: the kinase profiling compilation of Christmann-Franck et al. (2016)

Tests used:
Assay in all cases: KINOMEscan competition binding
Conditions in all cases: compound 1.0 µM
[1] = test system: KIT (human), P10721 [V559D/T670I]
GSK3B (human) = GSK3B (human) (UniProt P49841)
PI4KB (human) = PI4KB (human) (UniProt Q9UBF8)
OXSR1 (human) = OXSR1 (human) (UniProt O95747)
TXK (human) = TXK (human) (UniProt P42681)
STK17B (human) = STK17B (human) (UniProt O94768)
STK32C (human) = STK32C (human) (UniProt Q86UX6)
EIF2AK1 (human) = EIF2AK1 (human) (UniProt Q9BQI3)
CAMK2A (human) = CAMK2A (human) (UniProt Q9UQM7)
[2] = test system: KIT (human), P10721 [V559D/V654A]
STK32B (human) = STK32B (human) (UniProt Q9NY57)
FLT1 (human) = FLT1 (human) (UniProt P17948)
TLK2 (human) = TLK2 (human) (UniProt Q86UE8)
PIP4K2B (human) = PIP4K2B (human) (UniProt P78356)
[3] = test system: EGFR (human), P00533 [T790M/L858R]
EPHA5 (human) = EPHA5 (human) (UniProt P54756)
HIPK2 (human) = HIPK2 (human) (UniProt Q9H2X6)
PRKCQ (human) = PRKCQ (human) (UniProt Q04759)
CDKL1 (human) = CDKL1 (human) (UniProt Q00532)
GRK7 (human) = GRK7 (human) (UniProt Q8WTQ7)
PAK2 (human) = PAK2 (human) (UniProt Q13177)
PIK3CG (human) = PIK3CG (human) (UniProt P48736)
CAMK2G (human) = CAMK2G (human) (UniProt Q13555)
RPS6KA6 KD1 (human) = RPS6KA6 KD1 (human) (UniProt Q9UK32)
CLK1 (human) = CLK1 (human) (UniProt P49759)
STK36 (human) = STK36 (human) (UniProt Q9NRP7)
MAPK12 (human) = MAPK12 (human) (UniProt P53778)
EPHA7 (human) = EPHA7 (human) (UniProt Q15375)
STK11 (human) = STK11 (human) (UniProt Q15831)
TEC (human) = TEC (human) (UniProt P42680)
[4] = test system: PIK3CA (human), P42336 [H1047L]
ERBB3 (human) = ERBB3 (human) (UniProt P21860)
CDK3 (human) = CDK3 (human) (UniProt Q00526)
MAPK4 (human) = MAPK4 (human) (UniProt P31152)
PRKAA2 (human) = PRKAA2 (human) (UniProt P54646)
ADCK4 (human) = ADCK4 (human) (UniProt Q96D53)
AKT1 (human) = AKT1 (human) (UniProt P31749)
PRKACB (human) = PRKACB (human) (UniProt P22694)
MAP3K2 (human) = MAP3K2 (human) (UniProt Q9Y2U5)
MAPK11 (human) = MAPK11 (human) (UniProt Q15759)
CHUK (human) = CHUK (human) (UniProt O15111)
WEE2 (human) = WEE2 (human) (UniProt P0C1S8)
FYN (human) = FYN (human) (UniProt P06241)

Sequence of STK11 (human) (Q15831 whole entry, looked up): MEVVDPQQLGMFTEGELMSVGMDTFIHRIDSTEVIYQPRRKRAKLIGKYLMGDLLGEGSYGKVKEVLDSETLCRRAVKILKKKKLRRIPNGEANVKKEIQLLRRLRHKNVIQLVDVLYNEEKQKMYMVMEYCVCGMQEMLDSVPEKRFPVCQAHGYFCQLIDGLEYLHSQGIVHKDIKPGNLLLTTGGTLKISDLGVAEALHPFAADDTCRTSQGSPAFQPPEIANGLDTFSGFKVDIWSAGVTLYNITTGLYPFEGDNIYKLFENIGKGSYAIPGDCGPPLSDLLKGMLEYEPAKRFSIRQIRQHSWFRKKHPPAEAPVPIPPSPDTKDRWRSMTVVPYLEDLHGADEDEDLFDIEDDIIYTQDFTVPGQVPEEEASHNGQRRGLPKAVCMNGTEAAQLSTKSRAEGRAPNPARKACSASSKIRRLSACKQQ
Sequence of MAP3K2 (human) (Q9Y2U5 whole entry, looked up): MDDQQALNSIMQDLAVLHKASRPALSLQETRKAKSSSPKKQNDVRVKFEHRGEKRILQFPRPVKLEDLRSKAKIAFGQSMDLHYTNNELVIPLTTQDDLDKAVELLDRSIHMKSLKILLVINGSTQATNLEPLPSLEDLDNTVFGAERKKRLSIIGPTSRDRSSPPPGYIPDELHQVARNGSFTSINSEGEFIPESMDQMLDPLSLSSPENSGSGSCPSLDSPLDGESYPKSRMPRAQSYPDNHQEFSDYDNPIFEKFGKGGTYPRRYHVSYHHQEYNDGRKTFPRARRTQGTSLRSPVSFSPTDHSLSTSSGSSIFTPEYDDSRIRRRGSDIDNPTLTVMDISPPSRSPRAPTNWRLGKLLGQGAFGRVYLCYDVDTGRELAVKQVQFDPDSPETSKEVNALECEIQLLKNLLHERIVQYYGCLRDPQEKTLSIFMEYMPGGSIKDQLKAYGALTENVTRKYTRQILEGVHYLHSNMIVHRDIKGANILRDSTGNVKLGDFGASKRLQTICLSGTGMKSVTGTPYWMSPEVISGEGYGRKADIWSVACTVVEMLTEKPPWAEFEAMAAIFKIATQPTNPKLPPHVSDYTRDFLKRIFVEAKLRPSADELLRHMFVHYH
Sequence of STK32C (human) (Q86UX6 whole entry, looked up): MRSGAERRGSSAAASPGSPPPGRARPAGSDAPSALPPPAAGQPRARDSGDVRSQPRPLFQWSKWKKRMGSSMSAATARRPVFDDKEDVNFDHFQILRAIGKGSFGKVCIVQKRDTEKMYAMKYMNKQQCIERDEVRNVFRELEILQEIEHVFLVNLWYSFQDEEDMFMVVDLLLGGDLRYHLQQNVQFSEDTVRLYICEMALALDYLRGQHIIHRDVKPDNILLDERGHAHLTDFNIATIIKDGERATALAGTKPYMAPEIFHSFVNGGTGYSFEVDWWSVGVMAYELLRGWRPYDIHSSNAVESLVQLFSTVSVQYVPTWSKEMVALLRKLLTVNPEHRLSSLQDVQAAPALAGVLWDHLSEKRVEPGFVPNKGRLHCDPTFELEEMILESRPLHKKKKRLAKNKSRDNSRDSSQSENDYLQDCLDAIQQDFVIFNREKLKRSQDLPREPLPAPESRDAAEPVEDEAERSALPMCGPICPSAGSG
Sequence of EPHA7 (human) (Q15375 whole entry, looked up): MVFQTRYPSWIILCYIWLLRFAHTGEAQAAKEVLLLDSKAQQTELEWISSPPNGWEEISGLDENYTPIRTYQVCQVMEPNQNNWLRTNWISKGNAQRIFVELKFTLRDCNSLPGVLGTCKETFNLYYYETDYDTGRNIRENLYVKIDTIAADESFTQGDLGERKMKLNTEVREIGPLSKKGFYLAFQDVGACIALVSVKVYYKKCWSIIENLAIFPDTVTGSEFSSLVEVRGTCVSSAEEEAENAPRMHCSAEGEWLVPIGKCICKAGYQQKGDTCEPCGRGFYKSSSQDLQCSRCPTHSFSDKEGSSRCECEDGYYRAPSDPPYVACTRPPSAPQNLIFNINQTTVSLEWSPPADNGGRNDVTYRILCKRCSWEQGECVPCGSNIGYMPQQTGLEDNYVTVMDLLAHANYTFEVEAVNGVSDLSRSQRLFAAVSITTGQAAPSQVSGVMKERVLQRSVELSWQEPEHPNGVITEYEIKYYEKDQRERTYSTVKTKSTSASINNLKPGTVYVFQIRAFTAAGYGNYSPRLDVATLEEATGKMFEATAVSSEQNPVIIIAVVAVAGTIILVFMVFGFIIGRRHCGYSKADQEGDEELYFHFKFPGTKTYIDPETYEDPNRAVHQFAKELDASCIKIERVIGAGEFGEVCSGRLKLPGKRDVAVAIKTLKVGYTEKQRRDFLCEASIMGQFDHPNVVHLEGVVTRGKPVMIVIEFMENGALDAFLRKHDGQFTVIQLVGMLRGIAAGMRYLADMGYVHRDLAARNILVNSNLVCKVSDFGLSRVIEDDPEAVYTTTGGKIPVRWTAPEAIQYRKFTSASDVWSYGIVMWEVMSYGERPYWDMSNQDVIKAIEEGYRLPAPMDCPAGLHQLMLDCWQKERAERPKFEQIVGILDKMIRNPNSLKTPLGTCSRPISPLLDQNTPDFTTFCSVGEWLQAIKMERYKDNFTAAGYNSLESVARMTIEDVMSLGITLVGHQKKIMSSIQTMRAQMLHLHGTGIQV
Sequence of EPHA5 (human) (P54756 whole entry, looked up): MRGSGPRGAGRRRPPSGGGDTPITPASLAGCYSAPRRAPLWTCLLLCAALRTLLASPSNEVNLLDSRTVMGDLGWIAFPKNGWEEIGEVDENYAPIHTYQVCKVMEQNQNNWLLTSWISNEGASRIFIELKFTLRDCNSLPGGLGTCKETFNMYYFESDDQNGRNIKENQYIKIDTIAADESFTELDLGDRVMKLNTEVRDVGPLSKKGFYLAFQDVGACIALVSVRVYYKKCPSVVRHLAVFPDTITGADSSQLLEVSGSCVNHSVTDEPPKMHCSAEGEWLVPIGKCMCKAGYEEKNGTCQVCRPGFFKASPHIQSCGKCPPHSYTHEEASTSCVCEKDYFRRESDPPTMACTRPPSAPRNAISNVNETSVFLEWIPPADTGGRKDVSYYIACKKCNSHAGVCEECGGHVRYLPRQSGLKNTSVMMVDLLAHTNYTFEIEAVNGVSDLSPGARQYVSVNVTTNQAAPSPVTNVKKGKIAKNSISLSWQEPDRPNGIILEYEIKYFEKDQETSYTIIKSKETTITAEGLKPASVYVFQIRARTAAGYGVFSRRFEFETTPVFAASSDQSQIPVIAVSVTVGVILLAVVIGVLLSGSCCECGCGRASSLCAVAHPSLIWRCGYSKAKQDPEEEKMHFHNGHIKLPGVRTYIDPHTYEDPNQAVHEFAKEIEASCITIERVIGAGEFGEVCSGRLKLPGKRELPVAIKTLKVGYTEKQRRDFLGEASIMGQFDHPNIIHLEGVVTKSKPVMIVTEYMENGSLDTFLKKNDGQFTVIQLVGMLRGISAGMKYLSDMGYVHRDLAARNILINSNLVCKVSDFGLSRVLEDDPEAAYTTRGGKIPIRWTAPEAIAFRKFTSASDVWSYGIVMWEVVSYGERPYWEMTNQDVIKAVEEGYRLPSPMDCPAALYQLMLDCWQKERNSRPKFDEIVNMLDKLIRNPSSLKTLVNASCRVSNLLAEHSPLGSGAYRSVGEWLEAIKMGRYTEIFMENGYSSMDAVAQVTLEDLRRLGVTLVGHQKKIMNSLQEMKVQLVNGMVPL
Sequence of GSK3B (human) (P49841 whole entry, looked up): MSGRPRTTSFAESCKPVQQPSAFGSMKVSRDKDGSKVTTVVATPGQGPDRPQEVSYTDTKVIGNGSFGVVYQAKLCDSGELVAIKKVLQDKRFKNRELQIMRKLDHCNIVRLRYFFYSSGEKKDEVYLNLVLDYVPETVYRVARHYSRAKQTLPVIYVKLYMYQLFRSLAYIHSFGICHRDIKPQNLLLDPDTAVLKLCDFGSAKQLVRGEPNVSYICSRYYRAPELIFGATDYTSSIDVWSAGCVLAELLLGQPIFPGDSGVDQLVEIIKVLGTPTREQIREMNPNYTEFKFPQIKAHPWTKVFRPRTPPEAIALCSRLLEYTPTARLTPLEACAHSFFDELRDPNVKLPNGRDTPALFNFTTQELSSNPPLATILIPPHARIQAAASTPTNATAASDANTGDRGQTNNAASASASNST
Sequence of AKT1 (human) (P31749 whole entry, looked up): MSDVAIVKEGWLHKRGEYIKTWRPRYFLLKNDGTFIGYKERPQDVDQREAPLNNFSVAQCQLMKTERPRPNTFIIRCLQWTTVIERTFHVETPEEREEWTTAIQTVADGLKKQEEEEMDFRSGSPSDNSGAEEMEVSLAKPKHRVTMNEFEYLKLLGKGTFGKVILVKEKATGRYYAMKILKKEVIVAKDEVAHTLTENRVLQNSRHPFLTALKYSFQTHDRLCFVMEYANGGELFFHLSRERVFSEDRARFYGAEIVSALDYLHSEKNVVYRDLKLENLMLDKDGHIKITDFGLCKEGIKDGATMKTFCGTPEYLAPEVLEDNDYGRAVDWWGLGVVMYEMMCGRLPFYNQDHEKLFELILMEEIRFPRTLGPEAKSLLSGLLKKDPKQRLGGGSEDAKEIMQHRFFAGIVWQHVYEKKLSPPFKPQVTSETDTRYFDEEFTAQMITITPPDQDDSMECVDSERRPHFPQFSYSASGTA
Sequence of CDKL1 (human) (Q00532 whole entry, looked up): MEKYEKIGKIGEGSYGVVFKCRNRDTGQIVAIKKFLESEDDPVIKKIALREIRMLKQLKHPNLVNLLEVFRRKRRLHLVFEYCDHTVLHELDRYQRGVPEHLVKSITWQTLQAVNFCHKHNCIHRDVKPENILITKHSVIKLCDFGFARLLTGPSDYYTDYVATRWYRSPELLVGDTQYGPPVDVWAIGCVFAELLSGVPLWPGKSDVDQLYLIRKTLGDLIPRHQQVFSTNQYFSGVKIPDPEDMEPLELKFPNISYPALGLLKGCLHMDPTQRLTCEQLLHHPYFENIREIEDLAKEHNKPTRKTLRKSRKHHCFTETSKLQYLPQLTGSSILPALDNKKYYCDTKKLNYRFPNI

COCCNCCCn1c(C(=O)CF)c(-c2ccc(C)cc2)c2c(N)ncnc21
kinase still bound, per cent of control [1]: 86%
kinase still bound, per cent of control (GSK3B (human)): 100%
kinase still bound, per cent of control (PI4KB (human)): 100%
kinase still bound, per cent of control (OXSR1 (human)): 100%
kinase still bound, per cent of control (TXK (human)): 100%
kinase still bound, per cent of control (STK17B (human)): 96%
kinase still bound, per cent of control (STK32C (human)): 100%
kinase still bound, per cent of control (EIF2AK1 (human)): 100%
kinase still bound, per cent of control (CAMK2A (human)): 78%
kinase still bound, per cent of control [2]: 94%
kinase still bound, per cent of control (STK32B (human)): 98%
kinase still bound, per cent of control (FLT1 (human)): 96%
kinase still bound, per cent of control (TLK2 (human)): 95%
kinase still bound, per cent of control (PIP4K2B (human)): 94%
kinase still bound, per cent of control [3]: 100%
kinase still bound, per cent of control (EPHA5 (human)): 91%
kinase still bound, per cent of control (HIPK2 (human)): 94%
kinase still bound, per cent of control (PRKCQ (human)): 99%
kinase still bound, per cent of control (CDKL1 (human)): 100%
kinase still bound, per cent of control (GRK7 (human)): 100%
kinase still bound, per cent of control (PAK2 (human)): 85%
kinase still bound, per cent of control (PIK3CG (human)): 100%
kinase still bound, per cent of control (CAMK2G (human)): 100%
kinase still bound, per cent of control (RPS6KA6 KD1 (human)): 90%
kinase still bound, per cent of control (CLK1 (human)): 87%
kinase still bound, per cent of control (STK36 (human)): 95%
kinase still bound, per cent of control (MAPK12 (human)): 100%
kinase still bound, per cent of control (EPHA7 (human)): 92%
kinase still bound, per cent of control (STK11 (human)): 98%
kinase still bound, per cent of control (TEC (human)): 100%
kinase still bound, per cent of control [4]: 100%
kinase still bound, per cent of control (ERBB3 (human)): 96%
kinase still bound, per cent of control (CDK3 (human)): 100%
kinase still bound, per cent of control (MAPK4 (human)): 100%
kinase still bound, per cent of control (PRKAA2 (human)): 75%
kinase still bound, per cent of control (ADCK4 (human)): 93%
kinase still bound, per cent of control (AKT1 (human)): 100%
kinase still bound, per cent of control (PRKACB (human)): 96%
kinase still bound, per cent of control (MAP3K2 (human)): 90%
kinase still bound, per cent of control (MAPK11 (human)): 90%
kinase still bound, per cent of control (CHUK (human)): 72%
kinase still bound, per cent of control (WEE2 (human)): 100%
kinase still bound, per cent of control (FYN (human)): 87%
